Laboratory results taken from US12509460B2 (Skyhawk Therapeutics, Inc., priority 2019, dated 2025).
pEC50: −log10 of the molar value. Where two headings read alike, the source gives them in different places.

How the values were obtained:
[1] = test system: SMN FL and SMN Δ7 in spinal muscular atrophy (SMA) patient fibroblasts (GM03813, Coriell); test: Quantitative splicing assay (SMN), qPCR; type: cell-based, human; details: Homo sapiens, Fibroblast, 24 h, read-out: SMN2 Splicing FL EC50
Description: Spinal muscular atrophy (SMA) patient fibroblasts (GM03813, Coriell) are plated in 96-well plates at 50,000 cells/well. […] Treated cells are lysed and cDNA synthesized using the Fast Advanced Cells-to-Ct kit (Thermofisher A35378) according to the manufacturer's instructions. 2 μL of each cDNA are used in qPCR reactions. […] Reactions are run in a Quant Studio 6 qPCR instrument with default settings.

[2] = test system: SMN protein in spinal muscular atrophy (SMA) patient fibroblasts (GM03813, Coriell); test: SMN protein assay, Mesoscale Discovery (MSD); type: cell-based, human; details: read-out: SMN2 protein EC50
Summary of the method: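 SMA patient fibroblasts (GM03813) seeded at 7000 cells/well and exposed to compound at 2.5 μM to 0.6 nM for 48 hours. Lysates assayed for SMN by MSD immunoassay, with absolute SMN amount calculated from a per-plate SMN standard curve (1 μg/ml to 19.5 pg/ml).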

[3] = test system: mHTT protein in GM04724 (CAG 70/20) Huntington's disease patient lymphoblast cells; test: mHTT protein assay, 2B7-MW1 assay via Mesoscale Discovery (MSD); type: cell-based, human
Summary of the method: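 Patient lymphoblasts treated 48 h with compound from 10 μM to 0.6 nM. mHTT quantified by MSD 2B7-MW1 immunoassay, whose signal depends on polyQ expansion and HTT size. Viability measured on a replicate plate by CellTiter Glo.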

[4] = test system: MDR1 (P-gp); test: Blood-brain-barrier (BBB) penetration potential via MDCK-MDR1 permeability assay; details: dog; for Papp A→B at 120 min, 5 μM: MDCK-MDR1, pH 7.4, MDCK-MDR1: Papp A-B; for Papp B→A at 120 min, 5 μM: MDCK-MDR1, pH 7.4, MDCK-MDR1: Papp B-A
[5] = test system: MDR1-MDCK cell monolayers; test: as above
[6] = test system: MDR1; test: as above; details: dog, MDCK-MDR1, pH 7.4, MDCK-MDR1: Efflux
[7] = SMA patient fibroblasts GM03813, 24 h, qPCR
[8] = SMA patient fibroblasts GM03813, 48 hours, MSD
[9] = GM04724 Huntington's disease patient lymphoblasts
[10] = SMA patient fibroblasts (GM03813)
[11] = SMA patient fibroblasts (GM03813), 48 hours
[12] = GM04724 (CAG 70/20) Huntington's disease patient lymphoblasts

Row | Compound | pEC50 [1, 7] | pEC50 [2, 8] | pEC50 [3, 9] | Papp A→B at 120 min, 5 μM ([4]; A-B direction) [×10⁻⁶ cm/s] | Papp B→A at 120 min, 5 μM ([4]; B-A direction) [×10⁻⁶ cm/s] | MDCK-MDR1: % Recov A-B ([5]; A-B direction) [%] | MDCK-MDR1: % Recov B-A ([5]; B-A direction) [%] | efflux ratio at 120 min, 5 μM ([6]; efflux ratio) | pEC50 [1, 10] | pEC50 [2, 11] | pEC50 [3, 12] | Papp A→B at 120 min, 5 μM ([4]; A-B) [×10⁻⁶ cm/s] | Papp B→A at 120 min, 5 μM ([4]; B-A) [×10⁻⁶ cm/s] | MDCK-MDR1: % Recov A-B ([5]; A-B) [%] | MDCK-MDR1: % Recov B-A ([5]; B-A) [%] | efflux ratio at 120 min, 5 μM [6] | mHTT protein EC50 [3, 12]
1 | CN(c1ccc(-c2cc3ncn(CC(F)(F)F)c(=O)c3cc2O)nn1)[C@H]1C[C@@H]2CC[C@@H](N2)[C@H]1F [Compound 81B, 7-(6-(((1R,2R,3S,5S)-2-fluoro-8-azabicyclo[3.2.1]octan-3-yl)(methyl)amino)pyridazin-3-yl)-6-hydroxy-3-(2,2,2-trifluoroethyl)quinazolin-4(3H)-one] | 7.30 to 7.80 | 7.82 to 11.00 | 7.00 to 7.29 | 0.4 | 54.6 | 96 | 100 | 138 |  |  |  |  |  |  |  |  | 
2 | CN(c1ccc(-c2cc3nccnc3cc2O)nn1)[C@@H]1C[C@H]2CC[C@H](N2)[C@@H]1F [Compound 88A, 7-(6-(((1S,2S,3R,5R)-2-fluoro-8-azabicyclo[3.2.1]octan-3-yl)(methyl)amino)pyridazin-3-yl)quinoxalin-6-ol] | 6.30 to 7.00 | 7.30 to 7.80 | 7.00 to 7.29 | 4.84 | 45.7 | 85 | 99 | 9 |  |  |  |  |  |  |  |  | 
3 | CN(c1ccc(-c2cc3nnccc3cc2O)nn1)[C@@H]1C[C@H]2CC[C@H](N2)[C@@H]1F [Compound 89A, 7-(6-(((1S,2S,3R,5R)-2-fluoro-8-azabicyclo[3.2.1]octan-3-yl)(methyl)amino)pyridazin-3-yl)cinnolin-6-ol] | 6.30 to 7.00 | 7.30 to 7.80 | 6.30 to 7.00 | 1.31 | 67.3 | 92 | 106 | 51 |  |  |  |  |  |  |  |  | 
4 | Cc1cc(=O)c2cc(O)c(-c3ccc(N(C)[C@H]4C[C@@H]5CC[C@H]([C@H]4F)N5C)nn3)cc2o1 [Compound 99B, 7-(6-(((1R,2R,3S,5S)-2-fluoro-8-methyl-8-azabicyclo[3.2.1]octan-3-yl)(methyl)amino)pyridazin-3-yl)-6-hydroxy-2-methyl-4H-chromen-4-one] |  |  |  |  |  |  |  |  | 7.00 to 7.29 | 7.82 to 11.00 | 6.30 to 7.00 | 2.74 | 56.7 | 103 | 112 | 21 | 
5 | Cc1cc(=O)c2cc(-c3ccc(N(C)[C@@H]4C[C@H]5CC[C@@H]([C@@H]4F)N5C)nn3)c(O)cc2o1 [Compound 100A, 6-(6-(((1S,2S,3R,5R)-2-fluoro-8-methyl-8-azabicyclo[3.2.1]octan-3-yl)(methyl)amino)pyridazin-3-yl)-7-hydroxy-2-methyl-4H-chromen-4-one] |  |  |  |  |  |  |  |  | 6.30 to 7.00 | 7.00 to 7.29 |  | 6.34 | 40.7 | 80 | 102 | 6 | E (501 ≤ E ≤ 10.000)
6 | Cc1cc(=O)c2cc(-c3ccc(N(C)[C@H]4C[C@@H]5CC[C@H]([C@H]4F)N5C)nn3)c(O)cc2o1 [Compound 100B, 6-(6-(((1R,2R,3S,5S)-2-fluoro-8-methyl-8-azabicyclo[3.2.1]octan-3-yl)(methyl)amino)pyridazin-3-yl)-7-hydroxy-2-methyl-4H-chromen-4-one] |  |  |  |  |  |  |  |  | 7.30 to 7.80 | 7.30 to 7.80 | 7.00 to 7.29 | 9.57 | 38.7 | 79 | 80 | 4 | 
7 | CN(c1ccc(-c2cc3ncn(C)c(=O)c3cc2O)nn1)[C@H]1C[C@@H]2CC[C@H]([C@H]1F)N2C [Compound 101B, 7-(6-(((1R,2R,3S,5S)-2-fluoro-8-methyl-8-azabicyclo[3.2.1]octan-3-yl)(methyl)amino)pyridazin-3-yl)-6-hydroxy-3-methylquinazolin-4(3H)-one] |  |  |  |  |  |  |  |  | 7.00 to 7.29 | 7.82 to 11.00 | 7.00 to 7.29 | 2.41 | 59.1 | 118 | 119 | 24 | 
